# Experimental data taken from the METLIN SMRT retention time set (Domingo-Almenara et al. 2019).
# Experiment: gradient 5% acetonitrile 3 min, to 50% in 2 min, to 85% in 15 min, held 3 min, 100 µL/min
# Conditions: column: Zorbax Extend-C18 2.1 x 50 mm; eluents: water / acetonitrile, 0.1% formic acid
# In short: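 Mixtures of ~100 pure standards were chromatographed on a Zorbax Extend-C18 column (2.1 × 50 mm, 1.8 μm) at 100 μL/min using water and acetonitrile, each with 0.1% formic acid. Detection used a quadrupole time-of-flight mass spectrometer in positive and negative ionization mode, and data collection spanned 3 months. Retention time was obtained from adduct peaks picked computationally and each checked manually.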
row,RP-LC retention time,SMILES
1,707 s,CCN(CC)CCNC(=O)c1cn(C)nc1S(=O)(=O)N1CCN(c2ccc(Cl)cc2)CC1
2,974 s,CC(C)N1C(=O)C(C)(C(=O)NCc2ccccc2Cl)Oc2cccnc21 (stereo not drawn)
3,791 s,CCS(=O)(=O)N1CCC(c2ccccc2)C1 (stereo not drawn)
4,674 s,CS(=O)(=O)Nc1ccc(C2(C(=O)N3CCN(c4ccccc4)CC3)CCCCC2)cc1
5,944 s,Cc1csc(-c2cc(S(=O)(=O)Nc3ccc(Cl)cc3F)cn2CC(=O)N2CCCC2)n1
6,1300 s,COc1ccc(C2(CNC(=O)C(=O)Nc3ccccc3Cl)CCCC2)cc1
7,795 s,CCc1ccc(CNC(=O)c2c(C)oc3nc(C)nc(N4CCCC4)c23)cc1
8,685 s,Cc1oc(-c2[nH]ncc2C(=O)N2CCCC2)cc1S(=O)(=O)Nc1ccccc1
9,1080 s,CCc1ccc(-n2cc(C(=O)OCC(=O)OC)c3ccccc3c2=O)cc1
10,758 s,Cc1ccccc1NC(=O)COc1cccc2c(=O)n(C)ccc12
11,1170 s,CCCC(=O)N1CCc2c([nH]c3ccccc23)C1c1ccc(SC)cc1 (stereo not drawn)
12,977 s,Cc1nc(-c2csc(S(=O)(=O)N3CCCC(C(=O)N4CCc5ccccc5C4)C3)c2)no1 (stereo not drawn)
13,928 s,CCc1noc(-c2cc(=O)n(CC(=O)NCc3ccc(SC)cc3)c3ccccc23)n1
14,656 s,Cn1c(CC2CCN(S(=O)(=O)Cc3cccc(Cl)c3)C2)nc2cccnc21 (stereo not drawn)
15,868 s,CCS(=O)(=O)N1CC(=O)N(c2cc(C)cc(C)c2)C(C)(C(=O)NCc2ccccc2)C1 (stereo not drawn)
16,808 s,CN1c2ccc(Cl)cc2C(=O)NC12CCN(C(=O)c1cccc(F)c1)CC2
17,805 s,CC1=C(c2ccc(C)cc2)S(=O)(=O)N=C1N1CCC(NC(=O)c2ccoc2)CC1

row,RP-LC retention time,SMILES
1,1090 s,Cc1cc(C)c(S(=O)(=O)N2CCCC(C(=O)Nc3ccccc3F)C2)c(C)c1 (stereo not drawn)
2,882 s,O=C(CCC1CCN(S(=O)(=O)c2ccccc2)CC1)NCc1ccc(F)cc1
3,686 s,CCN(CC)S(=O)(=O)c1ccc2c(c1)N(CC(=O)NCc1cccc(C)c1)C(=O)C1CCCCN21 (stereo not drawn)
4,633 s,O=C(CN1C(=O)NC2(CCCCC2)C1=O)Nc1cccc(F)c1
5,1150 s,CCOC(=O)c1cnc(N2CCN(c3ccccc3OC)CC2)c2ccccc12
6,1050 s,Cc1ccccc1CNC(=O)C1(C)CCN(S(=O)(=O)c2ccc(Br)s2)CC1
7,940 s,O=C(Nc1ccccc1)C1CCCN(S(=O)(=O)Cc2ccccc2)C1 (stereo not drawn)
8,1090 s,COC(=O)c1ccc2c(=O)n(-c3cccc(Cl)c3)c(N3CCSCC3)nc2c1
9,769 s,CCN1c2ccccc2C(=O)NC12CCN(C(=O)NCc1ccc(F)cc1)CC2
10,893 s,Cc1ccc(Cn2c(=O)c(SCC(=O)NC3CC3)nc3ccccc32)cc1
11,922 s,O=c1n(Cc2ccc3c(c2)OCO3)nc2c(S(=O)(=O)N3CCc4ccccc4C3)cccn12
12,695 s,Cn1cc(CN2CCCC(COc3ccccc3C(=O)N3CCCC3)C2)c2ccccc21 (stereo not drawn)
13,909 s,Cn1cc(C(=O)NCc2ccc(Cl)cc2)c(S(=O)(=O)N2CCSCC2)n1
14,571 s,COCCCNC(=O)C1CN(C(=O)c2ccccc2)CC12CCCCC2 (stereo not drawn)
15,865 s,Cc1nc(-c2ccccc2)cc2nn(CC(=O)NC3CCCC3)c(=O)n12
16,624 s,CCCn1c(C)cnc1C1CN(S(=O)(=O)c2cccc3cccnc23)C1
17,558 s,Cc1nnc(N2CCCC(C(=O)NCCCN3CCCC3)C2)c2nn(-c3ccccc3)c(C)c12 (stereo not drawn)

# The remaining lines, values behind:
row,SMILES,RP-LC retention time
1,Cc1nnc2c(=O)n(CC(=O)NCc3ccc(Cl)cc3)c3cccnc3n12,703 s
2,CCn1ccc2c(cc(C(=O)Nc3ccc(F)cc3C)n2C)c1=O,726 s
3,O=C(Cn1nc2c3ccc(F)cc3ncn2c1=O)Nc1ccc(Cl)cc1,760 s
4,O=S(=O)(c1cc(-c2noc(C3CCCC3)n2)cs1)N1CCCC1,1110 s
5,Cc1ccc(NC(=O)Cn2nc(-n3cccc3)c3c(C)cc(C)nc32)c(C)c1,1080 s
6,CSc1ncccc1C(=O)Nc1ccc(CC(=O)NC(C)(C)CO)cc1,633 s
7,CCC(=O)N1CCN(c2nc3c(s2)CC(C(=O)NC(CC)CC)CC3)CC1 (stereo not drawn),546 s
8,Cc1nc(N2CCN(c3ccccn3)CC2)nc2c1C(=O)CC(c1cccs1)C2 (stereo not drawn),732 s
9,CCc1noc(-c2nc(-c3cc(OC)c(OC)c(OC)c3)no2)n1,892 s
10,Cc1ccn2c(NC(=O)c3ccc4ccccc4c3)c(-c3ccc(F)cc3)nc2c1,765 s
11,COCc1noc([C@@H]2CN(C(=O)C3CC=CCC3)C[C@H]2C(N)=O)n1 (stereo partly drawn),610 s
12,NC(=O)CCC(C(=O)O)N1C(=O)c2ccc(O)cc2C1=O (stereo not drawn),620 s
13,O=C(NCc1cc(F)cc(F)c1)c1ccnc(N2CCNC(c3ccccc3)C2)c1 (stereo not drawn),661 s
14,Cc1nc(-c2ccccc2F)sc1C(=O)NC1CC1,827 s
15,Cc1cc(-c2nnc(-c3ccc(F)cc3)o2)c(C)n1CC(=O)NCc1ccccc1,920 s
16,COC(=O)c1cc(C)nc2c1c(=O)n(Cc1nc(-c3ccccc3OC)oc1C)c(=O)n2C,971 s
17,O=C(NC1CC1)c1cc(-c2cccc(F)c2)ns1,882 s
18,Cc1nnc(N2CCCC(C(=O)NCCN3CCCC3)C2)c2nn(-c3ccc(Cl)cc3)c(C)c12 (stereo not drawn),591 s
19,CN1C(=O)c2cccnc2Sc2cc(NC(=O)c3ccccc3C(F)(F)F)ccc21,799 s
20,Cc1cccc2nc(-c3cccc(Br)c3)c(Nc3ccc4c(c3)OCCO4)n12,739 s
21,COc1ccc(NC(=O)C2CC(=O)N(c3n[nH]c4cccc(F)c34)C2)cc1Cl (stereo not drawn),752 s
22,O=P(OC1=CCCCC1)(c1ccccc1)c1ccccc1,1030 s
23,Cc1c(-c2noc(-c3cccc(F)c3)n2)nnn1Cc1ccccc1,1080 s
24,CCN1C(=O)COc2ccc(-c3noc(-c4ccccc4C(F)(F)F)n3)cc21,1140 s
25,CCOc1cccc(=O)c2c(C)n(-c3nc(-c4ccc(OC)cc4)c(C)s3)c(C)c12,1160 s
26,CC(C)(C)n1nc2c(c1NC(=O)c1cccs1)CS(=O)(=O)C2,690 s
27,CCOC(=O)c1cnn(-c2ccc(C(=O)Nc3ccc(Br)cc3)cn2)c1N,1020 s

row,SMILES,RP-LC retention time
1,CC(C)n1c(CCNC(=O)c2ccc(F)cc2)nc2cccnc21,656 s
2,COC(=O)c1nnn(-c2nonc2N)c1CN1CCN(c2ccccn2)CC1,578 s
3,CCCn1c(C)cnc1C1CN(S(=O)(=O)c2ccc(F)c(Cl)c2)C1,706 s
4,COC(=O)c1c(NCc2ccco2)c2cccc(Cl)c2[nH]c1=O,740 s
5,CCOc1cccc(-c2noc(Cn3ccn(-c4ccccc4OC)c(=O)c3=O)n2)c1,863 s
6,COc1ccc(N2CC(c3noc(-c4ccc(C)c(C)c4)n3)CC2=O)cc1OC (stereo not drawn),983 s
7,CCn1c(C2CCN(C(=O)c3ccoc3)C2)nc2cccnc21 (stereo not drawn),604 s
8,CC1=C(c2ccc(F)cc2)S(=O)(=O)N=C1N1CCC(NC(=O)C2CCOC2)CC1 (stereo not drawn),664 s
9,CC(C)Cc1csc(-c2csc(S(=O)(=O)NCc3ccc(F)cc3F)c2)n1,1160 s
10,COc1cccc(-c2csc(-c3nnn(-c4ccc(Cl)cc4)c3N)n2)c1,1170 s
11,CCOc1ccc(Nc2c(-c3ccc(SC)cc3)nc3cnccn23)cc1,994 s
12,CCCNC(=O)N1CCC(c2noc(-c3ccccn3)n2)C1 (stereo not drawn),648 s
13,CCN1C(=O)COc2ccc(-c3noc(-c4cccc(NC(C)=O)c4)n3)cc21,848 s
14,CCCCCC(=O)Nc1nc(-c2ccc(C)cc2C)cs1,1190 s
15,Cc1ccc(C)c(C2=NC3(CCN(C(C)C)CC3)NC(c3cc(Cl)ccc3O)C2)c1 (stereo not drawn),679 s
16,O=C(CC1CCCCC1)Nc1ccc(-c2nc(-c3ccccc3)co2)cc1,1270 s
17,COc1ccc(OC)c(S(=O)(=O)Nc2cc(-c3nc4cccnc4s3)ccc2C)c1,888 s
18,COc1ccc(CC(=O)Nc2ccc3c(c2)Sc2ncccc2C(=O)N3C)c(Cl)c1,804 s
19,COCCN1C(=O)[C@H]2CN(Cc3ccc(OC(F)(F)F)cc3)C[C@H]2C1=O,694 s
20,NC1=N[C@@]2(c3cc(NC(=O)c4ccc(F)cn4)ccc3F)COC[C@H]2CS1,674 s
21,CCCn1nc(CNC(=O)c2ccc(C#N)cc2)c2ccccc21,844 s
22,Cc1cc2c(cc1CNC(=O)c1cc3c(cc1C)OCCCO3)OCCO2,846 s
23,Cc1ccc(CSc2nc(CC(=O)Nc3ccc(-n4cnnn4)cc3)cs2)cc1,868 s
24,O=C(Cn1ccn2nc(-c3ccccc3)c(CO)c2c1=O)Nc1ccccc1Cl,808 s
25,COc1ccccc1NC(=O)c1cc(C(C)C)n2nccc2n1,1180 s
26,COc1ccc(C2Nc3ccccc3NC3=C2C(=O)CC(c2cccs2)C3)cc1OC (stereo not drawn),730 s
27,CC(=O)N1c2ccc(S(=O)(=O)N3CCCCC3)cc2CC1C(=O)NCCN(C)C1CCCCC1 (stereo not drawn),655 s
